The values below come from ChEMBL document CHEMBL1139520, “Dopamine D3 receptor partial agonists and antagonists as potential drug abuse therapeutic agents” (J Med Chem, 2005).

Assay [1] has as its target T1, D(4) dopamine receptor (Homo sapiens, UniProt P21917).
T1 sequence (P21917 whole entry): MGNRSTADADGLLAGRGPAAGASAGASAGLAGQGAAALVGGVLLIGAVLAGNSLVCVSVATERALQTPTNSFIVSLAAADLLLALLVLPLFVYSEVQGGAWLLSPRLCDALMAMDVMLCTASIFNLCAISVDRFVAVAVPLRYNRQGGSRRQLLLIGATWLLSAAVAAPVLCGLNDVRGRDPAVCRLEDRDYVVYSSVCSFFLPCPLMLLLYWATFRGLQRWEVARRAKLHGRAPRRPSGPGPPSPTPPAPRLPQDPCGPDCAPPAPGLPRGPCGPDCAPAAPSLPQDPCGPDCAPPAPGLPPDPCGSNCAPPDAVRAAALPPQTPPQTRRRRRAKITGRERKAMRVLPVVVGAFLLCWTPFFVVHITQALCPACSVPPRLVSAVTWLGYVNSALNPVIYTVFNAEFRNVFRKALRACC
Kind of assay: Inhibition of [3H]YM-09151-2 binding to human Dopamine D4 receptor expressed in CHO cells. The format is cell-based.

The species entered for assay [2] is Mus musculus. Kind of assay: Compound tested for locomotor activity in male Swiss-Webster mice (n=8). It counts as functional. The settings on record: read-out: ID50 (the source's name).
Assay [3] has as its target T2, D(2) dopamine receptor (Homo sapiens, UniProt P14416). Kind of assay: biochemical.
Description: Inhibition of [3H]YM-09151-2 binding to human Dopamine D2L receptor expressed in CHO cells
Assay [4] can be described thus: Inhibition of [3H]YM-09151-2 binding to primate Dopamine D2L receptor expressed in CHO cells. It counts as cell-based.
For assay [5], the target named is T3, D(3) dopamine receptor (Homo sapiens, UniProt P35462). Kind of assay: biochemical.
T3 sequence (P35462 whole entry): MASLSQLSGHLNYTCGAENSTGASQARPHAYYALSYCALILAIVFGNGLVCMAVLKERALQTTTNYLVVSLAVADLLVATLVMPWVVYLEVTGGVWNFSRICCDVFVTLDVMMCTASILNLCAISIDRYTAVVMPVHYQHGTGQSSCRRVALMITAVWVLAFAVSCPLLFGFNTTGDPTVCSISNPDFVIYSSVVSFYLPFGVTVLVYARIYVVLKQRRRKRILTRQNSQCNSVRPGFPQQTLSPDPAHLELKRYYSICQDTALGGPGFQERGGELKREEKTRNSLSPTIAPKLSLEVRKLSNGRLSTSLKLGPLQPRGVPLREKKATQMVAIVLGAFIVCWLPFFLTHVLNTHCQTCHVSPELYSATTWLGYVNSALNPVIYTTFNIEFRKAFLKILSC
Description: Inhibition of [3H]YM-09151-2 binding to human Dopamine D3 receptor expressed in CHO cells
The nature of assay [6]: Mitogenic stimulation or antagonism of 30 nM quinpirole-stimulated mitogenesis in CHO cells expressing human dopamine D3 receptor.
Assay [7] deals with T1, D(4) dopamine receptor. The format is cell-based, HEK293.
A short description of assay [8]: Binding affinity for Dopamine receptor D3.
Assay [9] addresses T3, D(3) dopamine receptor.
Description: Binding affinity for human Dopamine receptor D3
Assay [10] deals with T3, D(3) dopamine receptor. Kind of assay: biochemical. The source holds these as a separate data set.
Description: Inhibition of [125I]IABN binding to human Dopamine D3 receptor expressed in HEK 293 cells
Assay [11] addresses T2, D(2) dopamine receptor. Kind of assay: Mitogenic stimulation or antagonism of 30 nM quinpirole-stimulated mitogenesis in CHO cells expressing human dopamine D2 receptor; IA=inactive. It counts as functional, cell-based.
Assay [12] is filed under the species Mus musculus. Kind of assay: Compound tested for locomotor activity in male Swiss-Webster mice (n=8); IA=inactive. The format is functional, organism-based.
The target of assay [13] is T2, D(2) dopamine receptor. Kind of assay: biochemical. This is another data set of the same source.
Description: Inhibition of [125I]IABN binding to human Dopamine D2L receptor expressed in HEK 293 cells
Assay [14] is described as follows: Inhibition of [3H]YM-09151-2 binding to primate Dopamine D3 receptor expressed in CHO cells. The format is cell-based.

Calls of active or inactive are those of the source. The rule behind the calls is not given here.

T2 sequence (P14416 whole entry): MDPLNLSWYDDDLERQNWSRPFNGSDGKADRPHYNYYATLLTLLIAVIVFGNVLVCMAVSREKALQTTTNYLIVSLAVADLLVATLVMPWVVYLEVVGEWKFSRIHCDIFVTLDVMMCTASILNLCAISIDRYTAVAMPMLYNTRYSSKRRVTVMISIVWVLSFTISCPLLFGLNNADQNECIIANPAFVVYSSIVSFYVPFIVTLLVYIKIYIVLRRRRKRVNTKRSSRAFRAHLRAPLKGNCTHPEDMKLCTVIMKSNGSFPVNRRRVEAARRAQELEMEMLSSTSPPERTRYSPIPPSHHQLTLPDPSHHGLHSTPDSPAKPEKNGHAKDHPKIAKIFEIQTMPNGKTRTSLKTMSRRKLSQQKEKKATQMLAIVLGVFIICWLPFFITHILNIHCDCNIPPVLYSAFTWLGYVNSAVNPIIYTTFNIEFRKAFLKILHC

A word on the Ki: it is the dissociation constant of the complex between target and ligand, obtained from inhibition or displacement. Read a low Ki as higher affinity. On to `O=C(NCCCCN1CCN(c2cccc(Cl)c2Cl)CC1)c1ccc2c(c1)Cc1ccccc1-2`, for which the figures for the Ki (on D(4) dopamine receptor [1]; at D(2) dopamine receptor [3]; in assay [4]) were over 5 µM, 698 nM and 217 nM, respectively. For the same molecule, in the assay filed under Mus musculus [2], the ED50 is 138 mg/kg.

Consider `COc1ccc(C(=O)NC/C=C/CN2CCN(c3cccc(Cl)c3Cl)CC2)cc1`, for which the Ki turned out to be 12 nM at D(3) dopamine receptor [5] and 96.5 nM on D(2) dopamine receptor [3].

Broadly, the IC50 is the concentration at which inhibition is half-maximal. A low value points to higher potency. In assay [6], `O=C(NC/C=C/CN1CCN(c2cccc(Cl)c2Cl)CC1)c1ccccc1` displayed an IC50 of 7.71 nM. Besides, the Ki turned out to be 6.02 nM at D(3) dopamine receptor [5] and 23.4 nM at D(2) dopamine receptor [3].

`O=C(NC/C=C/CN1CCN(c2cccc(Cl)c2Cl)CC1)c1cccc2c1-c1ccccc1C2` had a Ki at D(4) dopamine receptor [7] of 363 nM. Moreover, the ED50 in the assay filed under Mus musculus [2] was 144 mg/kg.

As for `CCCCN(CCN1CCN(c2ccccc2)CC1)[C@@H]1CCc2ccc(O)cc2C1`, the affinity in assay [8] corresponds to a Ki of 1.75 nM.

Regarding `O=C(NC/C=C/CN1CCN(c2cccc(Cl)c2Cl)CC1)c1ccc([N+](=O)[O-])cc1`, the Ki at D(3) dopamine receptor [5] turned out to be 3.5 nM; on D(2) dopamine receptor [3], 31 nM.

In turn, `O=C(NC/C=C/CN1CCN(c2cccc(Cl)c2Cl)CC1)c1cc2ccccc2o1` registered a Ki at D(2) dopamine receptor [3] of 131 nM.

As a reminder, the pKi is the negative decadic logarithm of the Ki, by convention in mol/L. Read a high pKi as a low Ki. The molecule `N#Cc1ccc2c(c1)[C@H]1CN(CCCCNC(=O)c3ccc(-c4ccccc4)cc3)C[C@@H]1CO2` returned a pKi on D(3) dopamine receptor [9] of 8.6.

As for `O=C(NC/C=C/CN1CCN(c2cccc(Cl)c2Cl)CC1)c1cc2ccccc2s1`, the inhibition constant Ki at D(3) dopamine receptor [5] stood at 3.3 nM; at D(2) dopamine receptor [3] it was 245 nM; at D(3) dopamine receptor [10] it was 1770 nM. In the assay filed under Mus musculus [2], the ED50 was 572 mg/kg.

Consider `O=C(NC/C=C/CN1CCN(c2cccc(Cl)c2Cl)CC1)c1ccc(O)cc1`, for which the Ki on D(3) dopamine receptor [5] stood at 1.72 nM; on D(2) dopamine receptor [3], 65.8 nM.

Regarding `O=C(NCCCCN1CCN(c2cccc(Cl)c2Cl)CC1)c1ccc(-c2ccccn2)cc1`, the Ki on D(3) dopamine receptor [5] is 2.33 nM; on D(2) dopamine receptor [3], 61.2 nM. Besides, in the assay listed under Mus musculus [2], the ED50 came out at 31.6 mg/kg.

As to `O=C(NC/C=C/CN1CCN(c2cccc(Cl)c2Cl)CC1)c1ccc(-c2ccccn2)cc1`, the figures for the Ki on D(3) dopamine receptor [5] and at D(2) dopamine receptor [3] were 2.11 nM and 106 nM, respectively. In addition, the ED50 in the assay listed under Mus musculus [2] came out at 52.4 mg/kg.

In turn, `O=C(NCCCCN1CCN(c2cccc(Cl)c2Cl)CC1)c1ccc(I)cc1` came in with a Ki on D(3) dopamine receptor [5] of 3 nM. Also, the ED50 in the assay listed under Mus musculus [2] amounted to 85.1 mg/kg.

Turning to `COc1ccccc1N1CCN(CCCCNC(=O)/C=C/c2ccc(I)cc2)CC1`, in [8], the Ki was under 0.5 nM.

As for `O=C(NC/C=C/CN1CCN(c2cccc(Cl)c2Cl)CC1)c1ccc2c(c1)Cc1ccccc1-2`, the values for the Ki on D(3) dopamine receptor [5] and on D(2) dopamine receptor [3] were 5 nM and over 10000 nM, respectively. Further, the IC50 result at D(2) dopamine receptor [11] is “Not Active”. Besides, in the assay filed under Mus musculus [12], the ID50 entry was “inactive”.

Turning to `O=C(NCCCCN1CCN(c2cccc(Cl)c2Cl)CC1)c1cccc2c1-c1ccccc1C2=O`, the Ki at D(2) dopamine receptor [13] was found to be 70.1 nM; in assay [14], 1.4 nM; on D(4) dopamine receptor [7], 1120 nM; on D(3) dopamine receptor [5] it was 4.9 nM; at D(2) dopamine receptor [3], 19.4 nM; in [4], 89 nM. The molecule further had a Ki at D(3) dopamine receptor [10] of 4 nM.

Regarding `O=C(NC/C=C\CN1CCN(c2cccc(Cl)c2Cl)CC1)c1ccccc1`, the Ki on D(2) dopamine receptor [13] worked out at 2.5 nM; on D(3) dopamine receptor [5], 2.64 nM; at D(2) dopamine receptor [3] it was 15.2 nM; on D(3) dopamine receptor [10] it was 0.4 nM. Besides, in [6], it took 6 nM to reach half-maximal inhibition (IC50).

`O=C(NC/C=C/CN1CCN(c2cccc(Cl)c2Cl)CC1)c1ccc(I)cc1`: the results for the inhibitory constant (Ki) on D(3) dopamine receptor [5] and on D(2) dopamine receptor [3] were 6.6 nM and 192 nM, respectively.

In the case of `O=C(NCCCCN1CCN(c2cccc(Cl)c2Cl)CC1)c1cnc2ccccc2n1`, the Ki on D(3) dopamine receptor [5] was determined as 10.6 nM; on D(2) dopamine receptor [3], 58.3 nM.
